Measured values taken from ChEMBL document CHEMBL1130519, “BN 80245: An E-ring modified camptothecin with potent antiproliferative and topoisomerase I inhibitory activities” (Bioorg Med Chem Lett, 1997).
pIC50: −log10 of the molar value.

System: L1210
Assay: Compound was evaluated for cytotoxic activity on L1210 murine leukemia cells
Type: functional, cell-based
Settings: Mus musculus

Row | Compound | pIC50
1 | CCC1(O)CC(=O)OCc2c1cc1n(c2=O)Cc2cc3ccccc3nc2-1 (stereo not drawn) | 7.79
2 | CC[C@@]1(O)C(=O)OCc2c1cc1n(c2=O)Cc2cc3ccccc3nc2-1 [CAMPTOTHECIN] | 6.90
3 | CC[C@@]1(O)C(=O)OCc2c1cc1n(c2=O)Cc2cc3c(CN(C)C)c(O)ccc3nc2-1 [TOPOTECAN] | 6.22
